Experimental data from US10098350B2, “Fungicidal amides” (E. I. DU PONT DE NEMOURS AND COMPANY, priority 2013, dated 2018).

Experiments:
Format in all cases: in vivo
[1] = system: Botrytis cinerea; assay: Test A: tomato seedlings sprayed with test suspension, inoculated with Botrytis cinerea (gray mold), visual disease rating
Text: General protocol for preparing test suspensions for Tests A-E: the test compounds were first dissolved in acetone in an amount equal to 3% of the final volume and then suspended at the desired concentration (in ppm) in acetone and purified water (50/50 mix by volume) containing 250 ppm of the surfactant Trem® 014 (polyhydric alcohol esters). The resulting test suspensions were then used in Tests A-E. Samples were applied to plants at either a 10 ppm (**), 40 ppm, 50 ppm (*) or 200 ppm (#) test solution to the point of run-off on the test plants with the equivalent of a rate of 40 g ai/ha, 160 g ai/ha, 200 g ai/ha, or 800 g ai/ha, respectively.
The test suspension was sprayed to the point of run-off on tomato seedlings. The following day the seedlings were inoculated with a spore suspension of Botrytis cinerea (the causal agent of gray mold on many crops) and incubated in a saturated atmosphere at 20° C. for 48 h, and moved to a growth chamber at 27° C. for 2 days, after which time visual disease ratings were made.
Results for Tests A-E are given in Table A. In the Table, a rating of 100 indicates 100% disease control and a rating of 0 indicates no disease control (relative to the controls). A dash (-) indicates no test results.

[2] = system: Puccinia recondite f. sp. tritici; assay: Test D: wheat seedlings sprayed with test suspension, inoculated with Puccinia recondite f. sp. tritici (wheat leaf rust), visual disease rating
Summary of the method: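 Wheat seedlings were sprayed to run-off with compound suspended in 50/50 acetone–water containing 250 ppm Trem 014, at 10-200 ppm (40-800 g ai/ha). They were inoculated with rust spores the next day, then kept 24 h saturated at 20 °C and 6 days at 20 °C. Scores are visual % disease control versus untreated controls.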

[3] = system: Erysiphe graminis f. sp. tritici; assay: Test E: wheat seedlings sprayed with test suspension, inoculated with Erysiphe graminis f. sp. tritici (wheat powdery mildew), visual disease rating
Summary of the method: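 Wheat seedlings sprayed to run-off with compound suspension (acetone 3%, acetone/water 50/50 with 250 ppm Trem 014) at 10, 40, 50 or 200 ppm (40–800 g ai/ha), inoculated next day with spore dust. Incubated 7 or 8 days at 20° C, then rated visually as % disease control relative to controls (0–100).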

[4] = system: Stagonospora nodorum (also known as Septoria nodorum); assay: Test B: wheat seedlings sprayed with test suspension, inoculated with Stagonospora nodorum (wheat glume blotch), visual disease rating
Summary of the method: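 Compounds in acetone/water 50/50 with 250 ppm Trem 014 were sprayed to run-off on wheat seedlings at 10, 40, 50 or 200 ppm (40–800 g ai/ha). Plants were inoculated next day, held 48 h saturated at 20 °C, then 6 days in a growth chamber at 20 °C. Visual rating 0–100% disease control relative to controls.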

[5] = system: Septoria tritici; assay: Test C: wheat seedlings sprayed with test suspension, inoculated with Septoria tritici (wheat leaf blotch), visual disease rating
Summary of the method: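 Wheat seedlings sprayed to run-off with compound suspended in acetone/water with 250 ppm Trem 014, at 10, 40, 50 or 200 ppm (40–800 g ai/ha). Inoculated with Septoria tritici spores the next day, held 48 h saturated at 24 °C, then 21 days at 20 °C. Visual rating 0–100% disease control relative to controls.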

[6] = Cmpd. No. marked '#' (other test rate; meaning of mark not shown)
[7] = Cmpd. No. unmarked, 100 = 100% disease control, 0 = no control relative to controls
[8] = Cmpd. No. marked '*' (other test rate; meaning of mark not shown)

SMILES | Test A rating (% disease control) [1, 6] | Test A rating (% disease control) [1, 7] | Test D rating (% disease control) [2, 6] | Test D rating (% disease control) [2, 7] | Test E rating (% disease control) [3, 6] | Test E rating (% disease control) [3, 7] | Test B rating (% disease control) [4, 6] | Test B rating (% disease control) [4, 7] | Test C rating (% disease control) [5, 6] | Test C rating (% disease control) [5, 7] | Test A rating (% disease control) [1, 8] | Test D rating (% disease control) [2, 8] | Test E rating (% disease control) [3, 8] | Test B rating (% disease control) [4, 8] | Test C rating (% disease control) [5, 8]
Cn1cc(C(=O)N(Cc2ccc(-n3ccc(Cl)n3)cn2)C2CC2)c(C(F)F)n1 [compound 5] | 0% | 0% | 28% | 0% | 0% | 0% | 0% | 0% | 80% | 17% |  |  |  |  | 
Cn1cc(C(=O)N(Cc2ccc(-n3ccc(-c4ccccc4)n3)cn2)C2CC2)c(C(F)F)n1 [compound 8] | 0% | 0% | 74% | 0% | 0% | 0% | 0% | 0% | 88% | 27% |  |  |  |  | 
Cn1nc(C(F)F)c(C(=O)N(Cc2ccc(-n3cc(Br)cn3)cc2Cl)C2CC2)c1Cl [compound 31] |  | 0% |  | 98% |  | 0% |  | 0% |  | 42% |  |  |  |  | 
CC(c1ccc(-n2ccc(C(F)(F)F)n2)cc1Cl)N(C(=O)c1cn(C)nc1C(F)F)C1CC1 (centres unmarked) [compound 19] |  | 0% |  | 85% |  | 64% |  | 99% |  | 75% |  |  |  |  | 
CC(c1ccc(-n2ccc(C(F)(F)F)n2)nc1)N(C(=O)c1cn(C)nc1C(F)F)C1CC1 (centres unmarked) [Compound 1, N-cyclopropyl-3-(difluoromethyl)-1-methyl-N-[1-[6-[3-(trifluoromethyl)-1H-pyrazol-1-yl]-3-pyridinyl]ethyl]-1H-pyrazole-4-carboxamide] | 0% | 0% | 28% | 0% | 98% | 96% | 69% | 0% | 93% | 86% |  |  |  |  | 
Cn1cc(C(=O)N(Cc2ccc(-n3cc(Cl)cn3)cc2Cl)C2CC2)c(C(F)F)n1 [compound 20] |  | 32% |  | 79% |  | 40% |  | 99% |  | 94% |  |  |  |  | 
Cn1cc(C(=O)N(Cc2cc(-n3ccc(C(F)(F)F)n3)ccc2[N+](=O)[O-])C2CC2)c(C(F)F)n1 [compound 13] |  | 0% |  | 32% |  | 0% |  | 0% |  | 0% |  |  |  |  | 
CC(c1ncc(-n2ccc(C(F)(F)F)n2)cc1Cl)N(C(=O)c1cn(C)nc1C(F)F)C1CC1 (centres unmarked) [compound 17] |  | 0% |  | 23% |  | 92% |  | 100% |  | 99% |  |  |  |  | 
Cn1cc(C(=O)N(Cc2cnc(-n3ccc(C(F)(F)F)n3)cc2Cl)C2CC2)c(C(F)(F)F)n1 [Compound 148] |  |  |  |  |  |  |  |  |  |  | 0% | 0% | 0% | 0% | 9%
Cn1nc(C(F)F)c(C(=O)N(Cc2ccc(-n3cc(Br)cn3)cc2Cl)C2CC2)c1F [compound 34] |  | 23% |  | 100% |  | 95% |  | 100% |  | 94% |  |  |  |  | 
Cn1cc(C(=O)N(Cc2ccc(-n3cc(Cl)cn3)cn2)C2CC2)c(C(F)F)n1 [compound 6] | 0% | 0% | 28% | 0% | 13% | 0% | 98% | 0% | 67% | 9% |  |  |  |  | 
Cc1nc(C(F)(F)F)c(C(=O)N(Cc2ccc(-n3ccc(C(F)(F)F)n3)cc2Cl)C2CC2)s1 [Compound 151] |  | 23% |  | 23% |  | 0% |  | 0% |  | 87% |  |  |  |  | 
